{"source": "ChEMBL document CHEMBL5331129", "about": "“Discovery of NAFLD-Improving Agents by Promoting the Degradation of Keap1” (J Med Chem, 2023)", "key": {"[1]": {"molecular_target": "Protein cereblon/Kelch-like ECH-associated protein 1 (Mus musculus, UniProt Q8C7D2+Q9Z2X8)", "sequence (Q9Z2X8 whole entry)": "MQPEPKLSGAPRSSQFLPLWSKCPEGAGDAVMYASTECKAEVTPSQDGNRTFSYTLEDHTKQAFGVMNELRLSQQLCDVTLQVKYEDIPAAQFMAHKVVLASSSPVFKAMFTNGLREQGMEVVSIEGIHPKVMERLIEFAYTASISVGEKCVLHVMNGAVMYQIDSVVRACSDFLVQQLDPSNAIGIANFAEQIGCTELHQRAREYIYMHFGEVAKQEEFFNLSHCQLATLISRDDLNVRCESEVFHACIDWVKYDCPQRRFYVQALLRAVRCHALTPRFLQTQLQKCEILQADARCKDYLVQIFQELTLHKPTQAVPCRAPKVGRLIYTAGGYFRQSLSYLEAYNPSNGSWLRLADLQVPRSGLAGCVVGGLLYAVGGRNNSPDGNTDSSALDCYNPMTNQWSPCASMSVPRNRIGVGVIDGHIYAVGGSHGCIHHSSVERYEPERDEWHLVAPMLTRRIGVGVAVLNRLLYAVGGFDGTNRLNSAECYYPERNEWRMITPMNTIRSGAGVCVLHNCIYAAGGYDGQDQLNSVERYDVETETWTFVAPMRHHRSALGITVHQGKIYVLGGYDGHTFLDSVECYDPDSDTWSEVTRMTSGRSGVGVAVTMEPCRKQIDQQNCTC", "sequence (Q8C7D2 whole entry)": "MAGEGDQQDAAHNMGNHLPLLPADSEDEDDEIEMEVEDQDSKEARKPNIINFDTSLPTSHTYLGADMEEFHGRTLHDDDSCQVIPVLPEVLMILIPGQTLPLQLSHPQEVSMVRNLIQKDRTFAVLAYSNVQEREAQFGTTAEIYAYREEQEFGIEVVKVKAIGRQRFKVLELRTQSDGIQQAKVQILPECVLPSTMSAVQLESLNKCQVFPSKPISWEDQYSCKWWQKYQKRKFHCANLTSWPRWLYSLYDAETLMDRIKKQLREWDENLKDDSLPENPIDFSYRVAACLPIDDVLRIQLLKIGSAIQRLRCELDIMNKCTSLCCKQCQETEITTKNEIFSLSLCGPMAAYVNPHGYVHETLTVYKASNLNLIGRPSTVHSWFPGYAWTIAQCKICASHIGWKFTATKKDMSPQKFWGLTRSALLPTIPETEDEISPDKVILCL", "experiment": "PROTAC activity at CRBN/Keap1 in mouse AML12 cells assessed as reduction of Keap1 protein incubated for 24 hrs by Western blotting analysis", "format": "cell-based"}, "[2]": {"molecular_target": "T1, Protein cereblon/Kelch-like ECH-associated protein 1 (Mus musculus) (UniProt Q9Z2X8+Q8C7D2)", "T1 sequence (Q8C7D2 whole entry, looked up)": "as the sequence (Q8C7D2 whole entry) above", "T1 sequence (Q9Z2X8 whole entry, looked up)": "as the sequence (Q9Z2X8 whole entry) above", "experiment": "PROTAC activity at CRBN/Keap1 in mouse AML12 cells assessed as degradation of Keap1 protein incubated for 6 to 48 hrs by Western blotting analysis", "format": "cell-based", "conditions": "time 6-48 hrs"}, "[3]": {"molecular_target": "T1, Protein cereblon/Kelch-like ECH-associated protein 1 (Mus musculus)", "experiment": "PROTAC activity at CRBN/Keap1 in mouse AML12 cells assessed as degradation of Keap1 protein at 0.5 to 2 uM incubated for 6 to 48 hrs by Western blotting analysis", "format": "cell-based", "conditions": "dose 0.5-2 µM, time 6-48 hrs, TDE = time-dependent effect"}, "[4]": {"molecular_target": "T1, Protein cereblon/Kelch-like ECH-associated protein 1 (Mus musculus)", "experiment": "PROTAC activity at CRBN/Keap1 in mouse AML12 cells assessed as degradation of Keap1 protein at 0.5 to 2 uM incubated for 24 hrs by Western blotting analysis", "format": "cell-based", "conditions": "dose 0.5-2 µM"}, "[5]": {"molecular_target": "T1, Protein cereblon/Kelch-like ECH-associated protein 1 (Mus musculus)", "experiment": "PROTAC activity at CRBN/Keap1 in mouse AML12 cells assessed as degradation of Keap1 protein at 1 uM incubated for 24 hrs by Western blotting analysis", "format": "cell-based"}, "[6]": {"molecular_target": "T1, Protein cereblon/Kelch-like ECH-associated protein 1 (Mus musculus)", "experiment": "PROTAC activity at CRBN/Keap1 in mouse AML12 cells assessed as degradation of Keap1 protein level at 1 uM preincubated with proteasome inhibitor, MG-132 followed by compound addition and incubated for 24 hrs by Western blotting analysis", "format": "cell-based"}, "[7]": {"molecular_target": "T1, Protein cereblon/Kelch-like ECH-associated protein 1 (Mus musculus)", "experiment": "PROTAC activity at CRBN/Keap1 in mouse AML12 cells assessed as degradation of Keap1 protein level at 1 uM preincubated with MLN-4924 followed by compound addition and incubated for 24 hrs by Western blotting analysis", "format": "cell-based"}, "[8]": {"molecular_target": "T1, Protein cereblon/Kelch-like ECH-associated protein 1 (Mus musculus)", "experiment": "PROTAC activity at CRBN/Keap1 in mouse AML12 cells assessed as degradation of Keap1 protein level at 1 uM preincubated with CDDO followed by compound addition and incubated for 24 hrs by Western blotting analysis", "format": "cell-based"}, "[9]": {"molecular_target": "Kelch-like ECH-associated protein 1 (Homo sapiens, UniProt Q14145)", "sequence (Q14145 whole entry)": "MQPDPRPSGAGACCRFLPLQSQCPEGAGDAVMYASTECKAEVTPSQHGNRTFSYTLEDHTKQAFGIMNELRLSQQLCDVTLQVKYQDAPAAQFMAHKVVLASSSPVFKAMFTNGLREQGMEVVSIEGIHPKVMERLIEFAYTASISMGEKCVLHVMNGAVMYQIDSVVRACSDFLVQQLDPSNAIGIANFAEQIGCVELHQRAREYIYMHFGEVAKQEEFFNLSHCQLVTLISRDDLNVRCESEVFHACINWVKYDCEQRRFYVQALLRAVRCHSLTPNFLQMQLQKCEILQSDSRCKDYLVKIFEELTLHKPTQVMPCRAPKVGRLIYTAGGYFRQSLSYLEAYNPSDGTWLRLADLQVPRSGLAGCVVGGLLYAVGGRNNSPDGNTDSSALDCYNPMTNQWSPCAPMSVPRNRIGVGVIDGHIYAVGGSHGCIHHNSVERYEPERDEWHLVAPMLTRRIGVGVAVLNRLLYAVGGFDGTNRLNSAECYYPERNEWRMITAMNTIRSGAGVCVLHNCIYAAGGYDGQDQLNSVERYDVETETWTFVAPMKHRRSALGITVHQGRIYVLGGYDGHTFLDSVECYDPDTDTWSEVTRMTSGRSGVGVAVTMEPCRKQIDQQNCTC", "experiment": "Binding affinity to Keap1 (unknown origin) assessed as dissociation constant incubated for 200 sec by sensor chip immobilization based surface plasmon resonance analysis"}, "[10]": {"tested_on": "AML12", "experiment": "Cytotoxicity against mouse AML12 cells at 0.5 uM incubated for 24 hrs by MTT assay", "format": "toxicity, cell-based", "conditions": "aml12, 24 h"}, "[11]": {"tested_on": "AML12", "experiment": "Antioxidant activity against free fatty acid induced oxidative stress in mouse AML12 cells assessed as downregulation of Keap1 protein expression level at 0.125 to 0.5 uM incubated for 24 hrs by immunofluorescence staining analysis", "format": "functional, cell-based", "conditions": "dose 0.125-0.5 µM"}, "[12]": {"tested_on": "AML12", "experiment": "Antioxidant activity against free fatty acid induced oxidative stress in mouse AML12 cells assessed as upregulation of Nrf2 protein expression level at 0.125 to 0.5 uM incubated for 24 hrs by immunofluorescence staining analysis", "format": "functional, cell-based", "conditions": "dose 0.125-0.5 µM"}, "[13]": {"tested_on": "AML12", "experiment": "Antioxidant activity against free fatty acid induced oxidative stress in mouse AML12 cells assessed as downregulation of Keap1 protein expression level at 0.125 to 0.5 uM incubated for 24 hrs by immunoblot analysis", "format": "functional, cell-based", "conditions": "dose 0.125-0.5 µM"}, "[14]": {"tested_on": "AML12", "experiment": "Antioxidant activity against free fatty acid induced oxidative stress in mouse AML12 cells assessed as upregulation of Nrf2 protein expression level at 0.125 to 0.5 uM incubated for 24 hrs by immunoblot analysis", "format": "functional, cell-based", "conditions": "dose 0.125-0.5 µM"}, "[15]": {"tested_on": "AML12", "experiment": "Antioxidant activity against free fatty acid induced oxidative stress in mouse AML12 cells assessed as increase in GSH level at 0.125 to 0.5 uM", "format": "functional, cell-based", "conditions": "dose 0.125-0.5 µM"}, "[16]": {"tested_on": "Mus musculus", "experiment": "Antioxidant activity against MCD diet-induced oxidative stress in C57Bl/6 mouse model of NAFLD assessed as downregulation of liver Keap1 protein expression level at 0.5 to 2 mg/kg,ip administrated for 4 weeks by immunofluorescence staining analysis", "format": "functional, organism-based", "conditions": "dose 0.5-2 mg/kg"}, "[17]": {"tested_on": "Mus musculus", "experiment": "Antioxidant activity against MCD diet-induced oxidative stress in C57Bl/6 mouse model of NAFLD assessed as upregulation of liver HO-1 protein expression level at 0.5 to 2 mg/kg,ip administrated for 4 weeks by immunohistochemical staining assay", "format": "functional, organism-based", "conditions": "dose 0.5-2 mg/kg"}, "[18]": {"tested_on": "Mus musculus", "experiment": "Antioxidant activity against MCD diet-induced oxidative stress in C57Bl/6 mouse model of NAFLD assessed as increase in GSH level in liver at 0.5 to 2 mg/kg,ip administrated for 4 weeks", "format": "functional, organism-based", "conditions": "dose 0.5-2 mg/kg"}, "[19]": {"tested_on": "Mus musculus", "experiment": "Antioxidant activity against MCD diet-induced oxidative stress in C57Bl/6 mouse model of NAFLD assessed as decrease in liver ROS level at 0.5 to 2 mg/kg,ip administrated for 4 weeks by immunostaining analysis", "format": "functional, organism-based", "conditions": "dose 0.5-2 mg/kg"}, "[20]": {"tested_on": "AML12", "experiment": "Antioxidant activity against free fatty acid induced oxidative stress in mouse AML12 cells assessed as reduction in total cholesterol level at 0.5 uM incubated for 24 hrs", "format": "functional, cell-based"}, "[21]": {"experiment": "Toxicity in MCD diet-induced oxidative stress in C57Bl/6 mouse model of NAFLD assessed as body weight loss at 2 mg/kg,ip administrated for 4 weeks […]", "format": "organism-based", "conditions": "in vivo, 672 h"}, "[22]": {"experiment": "Toxicity in MCD diet-induced oxidative stress in C57Bl/6 mouse model of NAFLD assessed as decrease in ratio of liver weight to body weight at ip administrated for 4 weeks […]", "format": "organism-based", "conditions": "in vivo, 672 h"}, "[23]": {"tested_on": "Mus musculus", "experiment": "Antioxidant activity against MCD diet-induced oxidative stress in C57Bl/6 mouse model of NAFLD assessed as reduction of serum LDL-C level at ip administrated for 4 weeks", "format": "functional, organism-based"}, "[24]": {"tested_on": "Mus musculus", "experiment": "Antioxidant activity against MCD diet-induced oxidative stress in C57Bl/6 mouse model of NAFLD assessed as increase in serum HDL-C level at ip administrated for 4 weeks", "format": "functional, organism-based"}, "[25]": {"tested_on": "Mus musculus", "experiment": "Antioxidant activity against MCD diet-induced oxidative stress in C57Bl/6 mouse model of NAFLD assessed as reduction of serum TG level at 0.5 to 2 mg/kg,ip administrated for 4 weeks", "format": "functional, organism-based", "conditions": "dose 0.5-2 mg/kg"}, "[26]": {"tested_on": "Mus musculus", "experiment": "Antioxidant activity against MCD diet-induced oxidative stress in C57Bl/6 mouse model of NAFLD assessed as reduction of serum TC level at 0.5 to 2 mg/kg,ip administrated for 4 weeks", "format": "functional, organism-based", "conditions": "dose 0.5-2 mg/kg"}, "[27]": {"tested_on": "Mus musculus", "experiment": "Antioxidant activity against MCD diet-induced oxidative stress in C57Bl/6 mouse model of NAFLD assessed as reduction of serum aminotransferase level at 0.5 to 2 mg/kg,ip administrated for 4 weeks", "format": "functional, organism-based", "conditions": "dose 0.5-2 mg/kg"}, "[28]": {"experiment": "Acute toxicity in zebrafish at < 5 uM observed at 48 hrs post fertilization", "set-up": "species or system Danio rerio", "conditions": "in vivo"}, "[29]": {"experiment": "Acute toxicity in C57BL/6 mouse assessed as histopathological change in lung at 20 mg/kg,ip qd administrated for 3 consecutive days and measured on day 4 by hematoxylin and eosin staining based assay", "format": "organism-based", "conditions": "in vivo"}, "[30]": {"experiment": "Acute toxicity in C57BL/6 mouse assessed as histopathological change in kidney at 20 mg/kg,ip qd administrated for 3 consecutive days and measured on day 4 by hematoxylin and eosin staining based assay", "format": "organism-based", "conditions": "in vivo"}, "[31]": {"experiment": "Toxicity in C57BL/6 mouse assessed as change in body weight at 2 mg/kg,ip qd administrated for 4 weeks", "format": "organism-based", "conditions": "in vivo, 672 h"}, "[32]": {"experiment": "Toxicity in C57BL/6 mouse assessed as histopathological change in spleen at 2 mg/kg,ip qd administrated for 4 weeks by hematoxylin and eosin staining based assay", "format": "organism-based", "conditions": "in vivo, 672 h"}}, "note": "Calls of active or inactive are those of the source. No cut-off for these calls is given here.", "data": [{"smiles": "CC1(C)CC[C@]2(C(=O)NCCCCCNc3cccc4c3C(=O)N(C3CCC(=O)NC3=O)C4=O)CC[C@]3(C)[C@H](C(=O)C=C4C5(C)C=C(C#N)C(=O)C(C)(C)[C@@H]5CC[C@]43C)[C@@H]2C1", "note": "(single isomer, unassigned)", "values": [{"measurement": "IC50", "setting": "[1]", "value": 18.2, "unit": "µM"}, {"measurement": "Activity", "setting": "[2]", "value": "Dose-Dependent Effect"}, {"measurement": "Activity", "setting": "[3]", "value": "Tde"}, {"measurement": "Activity", "setting": "[4]", "value": "Active"}, {"measurement": "Activity", "setting": "[5]", "value": "Active"}, {"measurement": "Activity", "setting": "[6]", "value": "inactive"}, {"measurement": "Activity", "setting": "[7]", "value": "inactive"}, {"measurement": "Activity", "setting": "[8]", "value": "inactive"}, {"measurement": "Kd", "setting": "[9]", "value": 11.9, "unit": "µM"}, {"measurement": "Activity", "setting": "[10]", "value": "Non-Toxic"}, {"measurement": "Activity", "setting": "[11]", "value": "Active"}, {"measurement": "Activity", "setting": "[12]", "value": "Active"}, {"measurement": "Activity", "setting": "[13]", "value": "Active"}, {"measurement": "Activity", "setting": "[14]", "value": "Active"}, {"measurement": "Activity", "setting": "[15]", "value": "Active"}, {"measurement": "Activity", "setting": "[16]", "value": "Dose-Dependent Effect"}, {"measurement": "Activity", "setting": "[17]", "value": "Dose-Dependent Effect"}, {"measurement": "Activity", "setting": "[18]", "value": "Active"}, {"measurement": "Activity", "setting": "[19]", "value": "Active"}, {"measurement": "Activity", "setting": "[20]", "value": "inactive"}, {"measurement": "Activity", "setting": "[21]", "value": "Non-Toxic"}, {"measurement": "Activity", "setting": "[22]", "value": "Non-Toxic"}, {"measurement": "Activity", "setting": "[23]", "value": "Dose-Dependent Effect"}, {"measurement": "Activity", "setting": "[24]", "value": "Dose-Dependent Effect"}, {"measurement": "Activity", "setting": "[25]", "value": "Active"}, {"measurement": "Activity", "setting": "[26]", "value": "Active"}, {"measurement": "Activity", "setting": "[27]", "value": "Active"}, {"measurement": "Activity", "setting": "[28]", "value": "Non-Toxic"}, {"measurement": "Activity", "setting": "[29]", "value": "Non-Toxic"}, {"measurement": "Activity", "setting": "[30]", "value": "Non-Toxic"}, {"measurement": "Activity", "setting": "[31]", "value": "Toxic"}, {"measurement": "Activity", "setting": "[32]", "value": "Non-Toxic"}]}]}
